Consider 2 compounds from publication PMC10485906, “Development of a Dihydroquinoline–Pyrazoline GluN2C/2D-Selective Negative Allosteric Modulator of the N-Methyl-D-aspartate Receptor” (ACS Chemical Neuroscience, 2023).

For one data set, the target named is GluN1/GluN2C (Rattus norvegicus, UniProt Q00961). Further details: GluN2B (NM_012574.1), GluN2C (NM_012575.3), and GluN2D (NM_022797.2) were provided by; expressed in transfected cells; host or cells: Xenopus laevis oocytes (cRNA injection). The settings on record: reproduced for comparison; cited from earlier work.
Another data set has as its system MDCK-MDR1. On the set-up: method as in PMID 23909910. The note with it: cited from earlier work.
Another data set has as its target T1, GluN1/GluN2B (Rattus norvegicus, UniProt Q00960).
T1 construct: GluN2B (NM_012574.1), GluN2C (NM_012575.3), and GluN2D (NM_022797.2) were provided by; expressed in transfected cells; host or cells: Xenopus laevis oocytes (cRNA injection)
On the set-up: method as in PMID 23909910. The settings on record: reproduced for comparison; cited from earlier work.

The next data set concerns the target GluN1/GluN2D (Rattus norvegicus, UniProt Q62645). Further details: GluN2B (NM_012574.1), GluN2C (NM_012575.3), and GluN2D (NM_022797.2) were provided by; expressed in transfected cells; host or cells: Xenopus laevis oocytes (cRNA injection). The settings on record: cited from earlier work.
The next data set deals with T2, GluA1 (Rattus norvegicus, UniProt P19490).
T2 construct: expressed in transfected cells; host or cells: Xenopus oocytes (cRNA injection)
Kind of data set: Off-target, oocytes, GluA1. The format is cell-based. The note with it: 1 µM compound; 100 µM glutamate. How it is done:
(§1) Analysis of Off-target Actions
(§2) Compound (S)-(-)-2i was tested at 1 µM for actions at glycine-activated GluN1/GluN3A (human GluN1-F484A,T518L/GluN3A referred to a GluN1-FA,TL/GluN3A) and rat GluN1-4a/GluN3B in the presence of 0.5 µM CGP-78608. cRNA injection ratios for GluN1/GluN3 were 1:2. Compound (S)-(-)- 2i was also tested for actions at AMPA (rat GluA1, rat GluA2, human GluA3-L531Y), kainate (rat GluK2), nicotinic acetylcholine (rat α7 and α4β2, cRNA ratio 1:1), GABAA (rat α1β2γ2S, cRNA ratio 1:1:1), GABAC (rat ρ1), glycine (rat α1), and purinergic (human P2X) receptors expressed in Xenopus oocytes. cRNA encoding the receptor subunits was synthesized from linear template cDNA using the mMessage mMachine kit (Ambion). Oocytes were injected with 1-5 ng cRNA in a 50 nL volume and incubated in Barth's solution at 15°C for 2-5 days prior to recording. GluK2-expressing oocyte were incubated in 1 mg/ml (10 µM) concanavalin-A for 10 min prior to recording. The cDNAs encoding GABAC and glycine subunits were provided by Dr. D. Weiss (University of Texas Health Science Center at San Antonio). cDNAs encoding nicotinic acetylcholine receptor subunits were provided by Drs. […]
(§3) GABA. […] Responses in presence of test compound were expressed as a percent of control. […]

The target of a further data set is T3, 1b22-GABA (Rattus norvegicus, UniProt P18508+P62813+P63138).
T3 construct: expressed in transfected cells; host or cells: Xenopus oocytes (cRNA injection, 1:1:1)
Kind of data set: Off-target, oocytes, GABAA. The format is cell-based. The note with it: 1 µM compound; 100 µM GABA. How it is done:
as §1, §2, §3

In the next data set the target is T4, α1-Glycine (Rattus norvegicus, UniProt P07727).
T4 construct: expressed in transfected cells; host or cells: Xenopus oocytes (cRNA injection)
Kind of data set: Off-target, oocytes, glycine receptor. It counts as cell-based. The settings on record: 1 µM compound; 100 µM glycine. How it is done:
as §1, §2, §3

The target in a further data set is GluN1-4a/GluN3B (Rattus norvegicus, UniProt P35439+Q8VHN2). Kind of data set: Off-target, oocytes, GluN1-4a/GluN3B. The format is cell-based. The settings on record: 1 µM compound; 100 µM glycine. The method, then: as §1, §2, §3
For another data set, the system named is hGluA3-L531Y. Kind of data set: Off-target, oocytes, GluA3. The format is cell-based, human. The note with it: 1 µM compound; 100 µM glutamate. How it is done: as §1, §2, §3
A further data set concerns the target T5, GluK2 (Rattus norvegicus, UniProt P42260).
T5 construct: expressed in transfected cells; host or cells: Xenopus oocytes (cRNA injection)
Kind of data set: Off-target, oocytes, GluK2. It counts as cell-based. The settings on record: 1 µM compound; 100 µM glutamate. The method, then:
as §1, §2, §3

The next data set has as its target hGluN1-FA,TL/hGluN3A (Homo sapiens, UniProt Q05586+Q8TCU5, F484A/T518L). Kind of data set: Off-target, oocytes, GluN1/GluN3A. The note with it: 1 µM compound; 100 µM glycine. The format is cell-based. The method, then:
as §1, §2, §3

The target in another data set is T6, GluA2-R607Q (Rattus norvegicus, UniProt P19491).
T6 construct: expressed in transfected cells; host or cells: Xenopus oocytes (cRNA injection)
Kind of data set: Off-target, oocytes, GluA2. The settings on record: 1 µM compound; 100 µM glutamate. It counts as cell-based. How it is done: as §1, §2, §3

Sequence of GluN1/GluN2D (Q62645 28-1323, other chains not shown): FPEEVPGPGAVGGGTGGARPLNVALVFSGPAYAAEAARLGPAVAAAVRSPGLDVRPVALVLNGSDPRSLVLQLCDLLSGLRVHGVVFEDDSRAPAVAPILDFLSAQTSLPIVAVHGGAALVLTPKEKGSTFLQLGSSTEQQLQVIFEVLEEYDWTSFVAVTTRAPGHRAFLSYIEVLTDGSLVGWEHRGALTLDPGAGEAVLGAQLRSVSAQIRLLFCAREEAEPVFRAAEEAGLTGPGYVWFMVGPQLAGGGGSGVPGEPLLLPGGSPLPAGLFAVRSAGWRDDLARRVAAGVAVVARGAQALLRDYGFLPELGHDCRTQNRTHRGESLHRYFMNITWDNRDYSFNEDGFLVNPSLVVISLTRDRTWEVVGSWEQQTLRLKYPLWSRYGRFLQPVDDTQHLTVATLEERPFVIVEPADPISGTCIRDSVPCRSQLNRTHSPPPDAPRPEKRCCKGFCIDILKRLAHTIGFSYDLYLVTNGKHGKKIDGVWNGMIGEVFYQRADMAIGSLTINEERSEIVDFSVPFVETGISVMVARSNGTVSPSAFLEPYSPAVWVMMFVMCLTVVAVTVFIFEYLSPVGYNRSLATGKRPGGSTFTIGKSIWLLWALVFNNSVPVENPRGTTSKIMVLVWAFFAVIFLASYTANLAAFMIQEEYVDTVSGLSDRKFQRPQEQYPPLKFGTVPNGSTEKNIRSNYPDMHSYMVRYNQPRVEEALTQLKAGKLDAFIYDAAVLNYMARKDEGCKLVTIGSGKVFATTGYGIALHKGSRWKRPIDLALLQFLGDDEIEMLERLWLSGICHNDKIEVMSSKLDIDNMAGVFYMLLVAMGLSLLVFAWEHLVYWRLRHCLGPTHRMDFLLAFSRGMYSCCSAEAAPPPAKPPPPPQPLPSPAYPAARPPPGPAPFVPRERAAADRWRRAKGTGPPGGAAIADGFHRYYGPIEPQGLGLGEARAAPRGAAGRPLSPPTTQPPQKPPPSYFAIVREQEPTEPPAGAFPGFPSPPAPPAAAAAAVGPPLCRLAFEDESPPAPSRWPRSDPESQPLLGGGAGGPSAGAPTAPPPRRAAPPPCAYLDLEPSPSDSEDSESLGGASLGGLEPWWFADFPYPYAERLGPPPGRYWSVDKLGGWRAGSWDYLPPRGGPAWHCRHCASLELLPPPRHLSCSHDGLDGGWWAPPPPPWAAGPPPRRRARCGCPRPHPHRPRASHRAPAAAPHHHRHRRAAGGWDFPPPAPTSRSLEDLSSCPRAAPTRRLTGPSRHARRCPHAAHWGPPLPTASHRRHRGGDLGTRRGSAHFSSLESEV
T1 sequence (Q00960 27-1482, other chains not shown): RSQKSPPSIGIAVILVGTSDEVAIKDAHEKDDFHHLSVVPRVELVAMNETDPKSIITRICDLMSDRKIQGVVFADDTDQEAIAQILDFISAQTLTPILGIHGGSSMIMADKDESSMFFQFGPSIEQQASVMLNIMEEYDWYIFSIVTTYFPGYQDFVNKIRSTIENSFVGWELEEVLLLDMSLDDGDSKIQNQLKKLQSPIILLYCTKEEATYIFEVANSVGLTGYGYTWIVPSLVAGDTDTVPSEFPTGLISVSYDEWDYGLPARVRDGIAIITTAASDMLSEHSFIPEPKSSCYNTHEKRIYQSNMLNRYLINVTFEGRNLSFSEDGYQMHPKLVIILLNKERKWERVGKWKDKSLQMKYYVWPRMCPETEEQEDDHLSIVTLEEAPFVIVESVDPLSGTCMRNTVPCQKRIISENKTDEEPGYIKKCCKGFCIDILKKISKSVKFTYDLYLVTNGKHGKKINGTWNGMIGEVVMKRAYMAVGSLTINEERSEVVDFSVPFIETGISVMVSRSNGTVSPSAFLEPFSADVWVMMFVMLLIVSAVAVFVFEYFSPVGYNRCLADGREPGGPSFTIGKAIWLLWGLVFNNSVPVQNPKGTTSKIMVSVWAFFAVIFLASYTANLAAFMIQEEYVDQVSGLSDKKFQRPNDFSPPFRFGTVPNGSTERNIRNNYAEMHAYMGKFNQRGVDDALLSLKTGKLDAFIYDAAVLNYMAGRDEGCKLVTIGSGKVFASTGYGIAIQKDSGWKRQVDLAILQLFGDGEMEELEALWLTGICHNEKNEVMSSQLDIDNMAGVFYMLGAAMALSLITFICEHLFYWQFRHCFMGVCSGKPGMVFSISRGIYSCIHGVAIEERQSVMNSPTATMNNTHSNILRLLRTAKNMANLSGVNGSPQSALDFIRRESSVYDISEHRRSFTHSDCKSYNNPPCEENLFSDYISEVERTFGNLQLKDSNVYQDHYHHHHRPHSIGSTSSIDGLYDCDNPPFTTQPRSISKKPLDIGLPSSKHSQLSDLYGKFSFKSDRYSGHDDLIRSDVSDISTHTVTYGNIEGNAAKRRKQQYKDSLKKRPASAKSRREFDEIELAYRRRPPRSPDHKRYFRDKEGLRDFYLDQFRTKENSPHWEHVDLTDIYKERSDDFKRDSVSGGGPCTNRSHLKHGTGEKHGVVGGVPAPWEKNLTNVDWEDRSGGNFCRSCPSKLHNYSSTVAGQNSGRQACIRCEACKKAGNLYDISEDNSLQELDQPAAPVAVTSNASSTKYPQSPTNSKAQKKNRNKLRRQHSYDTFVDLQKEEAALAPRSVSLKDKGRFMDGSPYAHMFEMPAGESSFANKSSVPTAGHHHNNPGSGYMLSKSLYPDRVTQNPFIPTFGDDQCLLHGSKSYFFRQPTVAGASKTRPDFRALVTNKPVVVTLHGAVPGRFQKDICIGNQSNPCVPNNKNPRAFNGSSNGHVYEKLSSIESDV
T4 sequence (P07727 29-457): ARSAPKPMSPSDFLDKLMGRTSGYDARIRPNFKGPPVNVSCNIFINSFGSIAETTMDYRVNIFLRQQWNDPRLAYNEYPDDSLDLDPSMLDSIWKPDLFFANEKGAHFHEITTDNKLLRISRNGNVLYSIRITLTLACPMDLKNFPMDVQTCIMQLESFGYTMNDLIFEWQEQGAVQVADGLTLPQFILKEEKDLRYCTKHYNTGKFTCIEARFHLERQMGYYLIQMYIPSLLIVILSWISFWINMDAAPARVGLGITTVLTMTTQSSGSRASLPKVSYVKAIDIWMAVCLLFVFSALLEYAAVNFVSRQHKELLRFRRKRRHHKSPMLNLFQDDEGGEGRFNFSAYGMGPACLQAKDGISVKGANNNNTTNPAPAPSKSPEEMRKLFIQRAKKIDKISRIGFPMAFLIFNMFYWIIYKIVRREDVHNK
Sequence of GluN1-4a/GluN3B (Q8VHN2 25-1002, other chains not shown): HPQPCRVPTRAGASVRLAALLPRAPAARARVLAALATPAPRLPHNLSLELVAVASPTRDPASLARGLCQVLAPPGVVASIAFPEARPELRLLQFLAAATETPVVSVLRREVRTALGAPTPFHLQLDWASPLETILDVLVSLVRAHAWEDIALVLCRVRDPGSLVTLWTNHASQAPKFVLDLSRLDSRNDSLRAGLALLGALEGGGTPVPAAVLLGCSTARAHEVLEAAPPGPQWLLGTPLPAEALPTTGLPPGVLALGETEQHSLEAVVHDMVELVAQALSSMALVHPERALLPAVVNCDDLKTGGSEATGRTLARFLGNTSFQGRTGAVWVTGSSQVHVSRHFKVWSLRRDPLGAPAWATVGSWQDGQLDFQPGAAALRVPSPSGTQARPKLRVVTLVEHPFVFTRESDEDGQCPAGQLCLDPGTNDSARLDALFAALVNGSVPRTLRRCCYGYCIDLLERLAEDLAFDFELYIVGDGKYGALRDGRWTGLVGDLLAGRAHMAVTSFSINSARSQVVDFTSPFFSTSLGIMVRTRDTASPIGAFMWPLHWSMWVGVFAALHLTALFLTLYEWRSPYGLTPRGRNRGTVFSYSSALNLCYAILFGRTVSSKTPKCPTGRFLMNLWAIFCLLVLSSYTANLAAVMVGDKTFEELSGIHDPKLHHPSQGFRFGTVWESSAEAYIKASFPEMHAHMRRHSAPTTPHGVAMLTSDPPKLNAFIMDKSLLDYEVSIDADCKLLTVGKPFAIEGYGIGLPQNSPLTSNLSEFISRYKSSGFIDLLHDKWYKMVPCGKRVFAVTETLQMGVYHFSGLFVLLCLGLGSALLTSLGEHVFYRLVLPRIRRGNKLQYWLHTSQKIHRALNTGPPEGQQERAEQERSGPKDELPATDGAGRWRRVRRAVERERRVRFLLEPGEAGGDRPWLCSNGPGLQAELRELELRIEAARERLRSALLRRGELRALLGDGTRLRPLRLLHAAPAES
T2 sequence (P19490 19-907): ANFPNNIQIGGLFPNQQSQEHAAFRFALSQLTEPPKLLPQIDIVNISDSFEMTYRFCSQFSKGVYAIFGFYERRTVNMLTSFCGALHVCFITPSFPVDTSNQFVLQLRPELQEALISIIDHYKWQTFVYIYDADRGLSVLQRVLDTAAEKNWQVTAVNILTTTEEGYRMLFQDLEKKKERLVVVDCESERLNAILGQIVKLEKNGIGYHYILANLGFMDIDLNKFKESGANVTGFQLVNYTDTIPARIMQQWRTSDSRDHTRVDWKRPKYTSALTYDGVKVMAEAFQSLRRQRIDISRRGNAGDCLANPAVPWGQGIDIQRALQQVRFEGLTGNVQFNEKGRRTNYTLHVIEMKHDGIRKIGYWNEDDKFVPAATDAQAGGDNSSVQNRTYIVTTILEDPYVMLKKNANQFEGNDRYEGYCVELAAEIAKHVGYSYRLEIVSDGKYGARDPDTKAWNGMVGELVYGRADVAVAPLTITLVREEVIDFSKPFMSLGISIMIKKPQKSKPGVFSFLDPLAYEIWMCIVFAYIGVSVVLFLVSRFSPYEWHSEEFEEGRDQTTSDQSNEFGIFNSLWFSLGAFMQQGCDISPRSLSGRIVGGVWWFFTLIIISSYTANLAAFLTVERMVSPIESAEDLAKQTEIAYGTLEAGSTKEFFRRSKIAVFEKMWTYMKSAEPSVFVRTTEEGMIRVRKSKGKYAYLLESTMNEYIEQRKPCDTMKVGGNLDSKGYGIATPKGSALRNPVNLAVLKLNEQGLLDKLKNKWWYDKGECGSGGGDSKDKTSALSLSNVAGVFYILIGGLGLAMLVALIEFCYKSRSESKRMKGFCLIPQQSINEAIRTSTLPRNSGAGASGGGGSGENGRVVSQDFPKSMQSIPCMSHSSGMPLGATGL

In the case of `O=C(O)CCC(=O)N1N=C(c2c(-c3ccc(Cl)cc3)c3ccccc3[nH]c2=O)CC1c1ccc(Cl)cc1` (stereo not drawn) [2a], at GluN1/GluN2C, the “I 30 μM / I control GluN2C” value is 3.1 ± 0.6 (2,6) %. Besides, in the data set with MDCK-MDR1 (cell-membrane permeability), the Papp was 0.47 × 10^–6 cm/s. Moreover, the “P-glycoprotein (P-gp)-mediated efflux ratio (ER)” value in the data set with MDCK-MDR1 is reported as 55. Besides, at GluN1/GluN2B, the “I 30 μM / I control GluN2B” value is on record as 44 ± 1.6 (2,8) %. For the same compound, on GluN1/GluN2D (30 μM, reproduced for comparison), the “I 30 μM / I control GluN2D” value is given as 2.0 ± 1.0 (2,5) %. Further, the “Selectivity 2A IC50 / 2D IC50” value on GluN1/GluN2D (GluN2D over GluN2A) is reported as 48 fold. The “Selectivity 2B IC50 / 2D IC50” value on GluN1/GluN2D (GluN2D over GluN2B) is listed as 50 fold.
Turning to `O=C(O)CC(F)(F)C(=O)N1N=C(c2c(-c3ccc(Cl)cc3)c3ccccc3[nH]c2=O)C[C@H]1c1ccc(Cl)cc1` [(S)-(−)-2i], the “% control GluA1” value at GluA1 came out at 100 ± 2.0%. Also, on 1b22-GABA, the “% control 1b22-GABA” value was determined as 85 ± 2.0%. Also, at α1-Glycine, the “% control α1-Glycine” value amounted to 103 ± 2.4%. Further, the “% control GluN1-4a/GluN3B” value on GluN1-4a/GluN3B amounted to 97 ± 1.0%. Further, the “% control hGluA3-L531Y” value with hGluA3-L531Y is on record as 105 ± 1.2%. Further, on GluK2, the “% control GluK2” value is listed as 100 ± 1.0%. Further, the “% control hGluN1-FA,TL/hGluN3A” value at hGluN1-FA,TL/hGluN3A turned out to be 95 ± 2.3%. Also, at GluA2-R607Q, the “% control GluA2-R607Q” value was determined as 98 ± 0.85%.
